Measurements reported in ChEMBL document CHEMBL1125118, “Penta- and hexadienoic acid derivatives: a novel series of 5-lipoxygenase inhibitors” (J Med Chem, 1990).

Columns and labels:
[1] = target: T1, Polyunsaturated fatty acid 5-lipoxygenase (Rattus norvegicus, UniProt P12527); test: In vitro inhibition of 5-lipoxygenase in rat (peritoneal assay)
T1 sequence (P12527 whole entry): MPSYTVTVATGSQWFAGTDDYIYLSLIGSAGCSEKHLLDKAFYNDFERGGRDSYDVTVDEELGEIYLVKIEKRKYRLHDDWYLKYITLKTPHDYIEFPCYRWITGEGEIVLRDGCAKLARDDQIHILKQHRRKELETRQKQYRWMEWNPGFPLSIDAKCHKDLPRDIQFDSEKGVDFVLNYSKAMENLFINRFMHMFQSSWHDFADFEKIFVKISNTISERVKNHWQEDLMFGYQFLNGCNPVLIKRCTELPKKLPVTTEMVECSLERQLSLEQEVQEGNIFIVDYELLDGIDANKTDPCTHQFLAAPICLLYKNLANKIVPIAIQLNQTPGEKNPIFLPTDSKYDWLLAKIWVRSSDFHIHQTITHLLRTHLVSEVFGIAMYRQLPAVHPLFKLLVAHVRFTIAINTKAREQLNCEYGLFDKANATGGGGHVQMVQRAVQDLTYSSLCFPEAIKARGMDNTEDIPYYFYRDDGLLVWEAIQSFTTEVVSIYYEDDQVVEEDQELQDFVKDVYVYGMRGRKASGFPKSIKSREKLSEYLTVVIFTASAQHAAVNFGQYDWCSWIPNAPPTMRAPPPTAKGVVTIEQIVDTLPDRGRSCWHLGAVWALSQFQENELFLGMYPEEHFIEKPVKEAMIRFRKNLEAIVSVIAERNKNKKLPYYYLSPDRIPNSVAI

[2] = target: T1, Polyunsaturated fatty acid 5-lipoxygenase; test: Iin vitro inhibition of 5-lipoxygenase activity in rat basophil leukemia type 1(RBL1) cell homogenates, (reduction of [14C]-5-HETE formation)
Mus musculus [3] = test: In vivo inhibition of ear oedema in mice following p.o. administration.; assay type: functional; conditions: po
Cyclooxygenase = target: T2, Cyclooxygenase (Rattus norvegicus, UniProt P35355+Q63921); test: In vitro for prostaglandin G/H synthase inhibitory activity against rat basophil leukemia type 1 cell homogenates, by measuring the radioactivity of [14C]-PGD2
T2 sequence (P35355 whole entry): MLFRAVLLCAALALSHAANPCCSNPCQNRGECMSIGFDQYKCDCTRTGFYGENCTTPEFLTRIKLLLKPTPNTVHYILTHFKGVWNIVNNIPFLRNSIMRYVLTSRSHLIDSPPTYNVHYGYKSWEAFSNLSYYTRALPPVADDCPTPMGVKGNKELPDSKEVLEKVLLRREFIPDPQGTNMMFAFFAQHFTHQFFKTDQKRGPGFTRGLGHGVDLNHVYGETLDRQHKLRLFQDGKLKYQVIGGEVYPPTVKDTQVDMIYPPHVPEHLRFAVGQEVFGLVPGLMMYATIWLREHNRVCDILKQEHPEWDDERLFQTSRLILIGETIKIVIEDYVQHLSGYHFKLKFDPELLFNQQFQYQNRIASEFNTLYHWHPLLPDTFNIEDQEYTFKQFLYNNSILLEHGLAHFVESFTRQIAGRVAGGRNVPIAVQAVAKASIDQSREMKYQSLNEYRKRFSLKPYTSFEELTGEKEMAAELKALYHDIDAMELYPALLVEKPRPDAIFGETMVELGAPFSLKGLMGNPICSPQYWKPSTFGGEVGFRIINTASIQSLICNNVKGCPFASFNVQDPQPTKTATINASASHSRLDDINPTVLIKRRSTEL
T2 sequence (Q63921 whole entry): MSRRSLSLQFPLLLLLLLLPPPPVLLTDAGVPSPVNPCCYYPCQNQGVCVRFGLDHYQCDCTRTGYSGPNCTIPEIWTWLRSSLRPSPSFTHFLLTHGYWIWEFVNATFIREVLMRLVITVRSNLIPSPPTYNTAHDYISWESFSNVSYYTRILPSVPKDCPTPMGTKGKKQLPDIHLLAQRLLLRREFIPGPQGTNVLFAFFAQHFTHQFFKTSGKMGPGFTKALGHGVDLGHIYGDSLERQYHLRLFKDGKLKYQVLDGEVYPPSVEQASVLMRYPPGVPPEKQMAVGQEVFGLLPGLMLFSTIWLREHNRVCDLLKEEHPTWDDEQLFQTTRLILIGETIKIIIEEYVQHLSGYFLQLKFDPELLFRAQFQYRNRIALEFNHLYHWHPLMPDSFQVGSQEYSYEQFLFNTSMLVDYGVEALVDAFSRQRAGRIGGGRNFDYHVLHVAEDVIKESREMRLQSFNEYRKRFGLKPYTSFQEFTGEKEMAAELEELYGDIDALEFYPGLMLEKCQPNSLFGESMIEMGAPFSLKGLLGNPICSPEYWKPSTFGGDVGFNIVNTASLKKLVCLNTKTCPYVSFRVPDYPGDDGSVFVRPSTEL

Mus musculus [4] = test: In vivo inhibition of AA induced ear oedema in mice following topical administration.; assay type: functional
[5] = target: T1, Polyunsaturated fatty acid 5-lipoxygenase; test: In vitro inhibitory activity against 5-Lipoxygenase in rat by Peritoneal 5-lipoxygenase assay

Row | SMILES | ED50 (Mus musculus [3]) [mg/kg] | IC50 (Cyclooxygenase) [µM] | ED50 (Mus musculus [4]) [mg ear-1] | also measured
1 | CCO/C(O)=C(/C=CC(=O)C(=O)c1ccccc1)Sc1ccccc1 | > 50 | 12 | >2 | IC50 [1]: 3 µM; IC50 [2]: 2 µM
2 | CCOC(=O)C(=CC=C(C(=O)OCC)N(C)C)Sc1ccccc1 | – | – | >2 | –
3 | CCOC(=O)C(=CC=C(SC)C(=O)c1ccccc1)N(C)C | – | > 50 | – | IC50 [5]: > 50 µM; IC50 [2]: > 50 µM
4 | CC(C)(C)c1cc(/C=C2\CCOC2=O)cc(C(C)(C)C)c1O | 100 | – | 0.3 | –
5 | O=C(O)C(O)=CC=Cc1ccccc1 | – | – | >5 | –
6 | CCOC(=O)C(=O)C=C/C(Sc1ccccc1)=C(\O)c1ccccc1 | – | – | >2 | –
7 | CCO/C(O)=C(/C=CC=O)Sc1ccccc1 | – | – | 2 | –
8 | CCSC(=CC=C(O)C(=O)O)C(=O)O | – | – | >0.5 | –
9 | CCOC(=O)C(=O)C=C/C(SCc1ccccc1)=C(\O)OCC | – | – | >2 | –
10 | CCOC(=O)C(=O)C=C/C(=C(\O)OCC)c1ccccc1 | – | – | >2 | –
11 | CCOC(=O)C(=O)C=C/C(O)=C(\O)OCC | – | – | >2 | –
12 | CCOC(=O)C(=O)C=C/C(C(=O)c1ccccc1)=C(\O)OCC | – | – | >2 | –
13 | NC1=NN(c2cccc(C(F)(F)F)c2)CC1 [BW-755C] | 75 | 6 | 0.08 | –
14 | CC1=NN(CCOc2ccc3ccccc3c2)C(=O)C1 [NAFAZATROM] | > 100 | – | 2 | –
15 | CC(Cc1ccc(O)c(O)c1)C(C)Cc1ccc(O)c(O)c1 (stereo not given) [NORDIHYDROGUAIARETIC ACID] | > 100 | > 50 | 0.1 | –
16 | O=c1c(O)c(-c2ccc(O)c(O)c2)oc2cc(O)cc(O)c12 [QUERCETIN] | > 100 | > 50 | 1 | –
